Legend:
[1] = test system: isolated rabbit thoracic aorta preparations; test: Assay on vascular tone (vasorelaxation of methoxamine-precontracted aortic rings); conditions: rabbit aortic rings precontracted with methoxamine 3 μM
Procedure: The ability of the compounds of the invention to induce vasorelaxation in comparison to precursor compounds was tested in vitro in isolated rabbit thoracic aorta preparations (Wanstall J. C. et al., Br. J. Pharmacol., 134:463-472, 2001). Male New Zealand rabbits (1,8-2 Kg) were used. The animals were anaesthetized with sodium thiopental (50 mg/kg, iv), sacrificed by exsanguinations and then the thorax was opened and the aorta dissected. The aortas were placed immediately in Krebs-HEPES buffer (pH 7.4; composition mM: NaCl 130.0, Kcl 3.7, […] 14.9, KH2PO4 1.2, MgSO4.7H2O 1.2, Glucose 11.0, HEPES 10.0, CaCl2.2H2O 1.6) and cut into ring segments (4-5 mm in length). Each ring was placed in a 5 ml tissue bath filled with Krebs-HEPES buffer (37° C.) aerated with 95% O2 and 5% CO2 and was then attached to a force transducer (Grass FT03), connected to a BIOPAC MP150 System for measurement of the isometric tension^2. The preparations were allowed to equilibrate for 1 h at a resting tension of 2 g with changes of the buffer every 15 minutes and then stimulated by exposure to 90 mM KCl (3 times) with intervening washings. After equilibration, the rings were precontracted submaximally with methoxamine (3 μM) and, when the contraction reach a steady state a cumulative concentration-response curve to the test compounds was obtained. The time intervals between doses were based on the time needed to reach a full a steady state response.
Responses to test compounds were expressed as a percentage of residual contraction and plotted against concentration of test compound. EC50 values (where EC50 is the concentration producing 50% of the maximum relaxation to the test compound) were interpolated from these plots.

[2] = test system: VEGF-induced leakage rat model; test: VEGF-induced retinal vascular leakage rat model (Evans blue); assay type: in vivo; conditions: 25 μg/eye intravitreal, VEGF 100 ng/eye, 18 hours after injection
Procedure: Pupils were dilated with 1% topical cyclopentolate hydrochloride to see the needle to guide the intravitreal injection. Recombinant rat vascular endothelial growth factor (VEGF; 100 ng/eye) or VEGF at 100 ng/eye plus test compounds were prepared in 0.5% carboxymethyl cellulose (CMC) in sterile saline and was injected into the vitreous with a 30-gauge needle (Xu, Q., et al. Invest. Ophthalmol. Vis. Sci., 42:789-794, 2001). The compounds of the invention were compared to corresponding steroid cores at equimolar doses. […] Control animals received vehicle. Compound (18) was similarly dosed alongside triamcinolone acetonide for comparison.
Retinal vascular leakage was measured as described previously (Xu, Q., et al. Invest. Ophthalmol. Vis. Sci., 42:789-794, 2001). After about 18 hours post injection of test compounds, rats were anesthetized with ketamine (80 mg/kg) and xylazine (4 mg/kg) IP. Then 45 mg/kg Evans blue (EB) was injected into the jugular vein. The dye was allowed to circulate for 2 hours. The chest cavity was opened and rats then perfused with 1% formalin in 0.5 M citrate buffer (pH 3.5, 37° C.) through the left ventricle. Retinas were carefully dissected from enucleated eyes, placed in pre-weighed Eppendorf tubes, dried in speed vacuum overnight and dry weights recorded. Evans blue was extracted by incubating each retina in 120 μl formamide for 18 hours at 70° C., centrifuged for 2 hours at 6000 rpm. Absorbance of 60 μl of extract was measured at 620 nm and background absorbance was determined at 740 nm. Net absorbance was calculated by subtracting the background 740 nm from that at 620 nm. Measurement of a standard curve of Evans blue in formamide was also done and Evans blue leakage expressed as μl/g/h was calculated as shown below: [EB(ng/ml)×120 (μl)×1000]/[dry weight retina (mg)×circulation time (h)×plasma EB(ng/ml)×100]

ophthalmic artery = test: Ocular haemodynamics (Color Doppler Imaging, Pourcelot Resistance Index) in ET-1 induced ischemia; assay type: in vivo, rabbit
Procedure: Haemodynamic evaluations were performed using an eco-color-doppler DynaView TM II SSD-1700 (Aloka Holding Europe AG, Milan, Italy). All animals underwent Color Doppler Imaging (CDI) investigation before ET-1 injection (T0), before the start of drug instillation (T2) and at the end of the drug treatment (T6). Special attention was devoted to the evaluation of ophthalmic and ciliary artery circulation. Blood flow velocities were measured for each vessel and the Pourcelot Resistance Index (RI) was calculated (Galassi F. et al., Acta Opht. Scand Suppl. (2000) 37-38).

TNFα = TNFα content in aqueous humor (ELISA), ET-1 induced ischemia; assay type: in vivo, rabbit; conditions: ET-1 treated rabbits; 0.5 mg (equivalent)/eye IVT
Procedure: (§1) Aqueous humor samples were withdrawn from both anterior and posterior chamber fluids of each eye before ET-1 administration (T0), before the administration of Compound (1) or fluorocinolone acetonide (T2), and at the end of treatments (T6). The same volume of saline were reintroduced every time. The aqueous humor samples were immediately frozen at −80° C. until use.
(§2) Tumor necrosis factor (TNFα) and interleukin 6 (IL-6) were determined in aqueous humor with a commercial kit using an ELISA method (Amersham Pharmacia Biotech). The minimum detectable concentrations were 0.10 pg/ml for IL-6 and TNFα. The interassay coefficient of variation was 0.7% for all assays.

VEGF = VEGF content in aqueous humor, ET-1 induced ischemia; assay type: in vivo, rabbit; conditions: ET-1 treated rabbits; 0.5 mg (equivalent)/eye IVT
IL-6 = IL-6 content in aqueous humor (ELISA), ET-1 induced ischemia; assay type: in vivo, rabbit; conditions: ET-1 treated rabbits; 0.5 mg (equivalent)/eye IVT
Procedure: as §1, §2

retinal tissue = test: Retina protection: morphological analysis, ET-1 induced ischemia; assay type: in vivo, rabbit; conditions: long term ET-1 treatment; 0.5 mg (equivalent)/eye IVT
Procedure: The eyes of each animal was enucleated, cornea and crystalline were removed and the eyes was paraformaldehyde-fixed. Then samples were dehydrated with increasing alcohol concentration (50°-75°-95°-100°). After 95° alcohol treatment, the eyes were divided into two parts following a longitudinal plain from cornea to insertion of optical nerve. Thus the samples were paraffin-embedded. Section 8 μm thick were stained with Haematoxylin-Eosin. Microscopical fields were registered by digitizing camera applied a light microscope with a 20× and 40× objective. On the digitized images was performed a morphological analysis of retinal tissue.

[3] = test system: New Zealand White rabbits; test: Electroretinogram (ERG) in ET-1 induced ischemia; conditions: after ET-1 treatment; 0.5 mg (equivalent)/eye IVT
Procedure: Twenty adult male New Zealand Albino rabbits weighing 2-2.5 Kg were used for the experiments. The animals were divided in two groups for the specific treatment chosen. The experimental procedures were conform to those of the Association for Research in Vision and Ophthalmology Resolution on the use of animals and in agreement with the Good Laboratory Practice for the use of animals and were conducted upon authorization of Italian regulation on protection of animals used for experimental and other scientific purpose (DM 116/1992) as well as with the European Union Regulations (OJ of ECL 358/1, Dec. 12, 1986). The rabbits were kept in individual cages, food and water was provided ad libitum. […]
The Electroretinogram (ERG) was performed in basal condition (T0), before the start of drug treatment (T2) and at the end of drug treatment (T6). […] The eyes were dilated by topical application of tropicamide (1%), adapted to darkness for at least 2 hours, and standard ERGs recorded in both eyes using corneal electrodes. […] The ERG signals were recorded using Retimax (CSO, Florence, Italy). The dark-adapted scotopic response (rod response) and scotopic flash response (photopic erg cone), were recorded. […] An average of three separate ERGs was determined for each eye. The amplitude (uV) of a- and b-waves were calculated for each step. […]

[4] = test system: New Zealand White rabbits; test: Intraocular pressure in endothelin-1 (ET-1) induced ischemia
Procedure: Twenty adult male New Zealand Albino rabbits weighing 2-2.5 Kg were used for the experiments. The animals were divided in two groups for the specific treatment chosen. […] The rabbits were kept in individual cages, food and water was provided ad libitum. The animals were maintained on a 12-12 h light/dark cycle in a temperature controlled room (22°-23° C.).
Ischemia model of optic injury was obtained throughout by injection, twice a week, for 6 weeks, of endothelin-1 (ET-1) 250 nM, 500 μl of sterile saline, into the posterior vitreous body of both eyes, using a lachrymal cannula, under general anesthesia produced by tiletamine plus zolazepam (Zoletil 100, 0.05 mg/kg) plus xilazine (Xilor 2%, 0.05 ml/kg) i.m.
Fluocinolone acetonide (FC) (0.5 mg/eye in 100 μl of vehicle) or Compound (1) (0.5 mg equivalent/eye in 100 μl of vehicle) were instilled intravitreally (IVT) two weeks after the start of ET-1 treatment (T2), in one eyes, the same volume of vehicle was instilled in the other eye.
Intraocular pressure (TOP) was measured twice a using a Tono-Pen XL (Medtronic Solan. USA) as described by Maren's group (Exp. Eye Res. (1992) 55: 73-79; Exp. Eye Res. (1993) 57: 67-78) with a two-point standard pressure measurement.

Brown Norway rats = test: Steroid-induced intraocular pressure (IOP) elevation in rats after intravitreal injection; conditions: for IOP increase: one week after injection, baseline 18 mm Hg
Excerpt: Male Brown Norway rats (250-275 g; Charles River laboratory) were acclimated for a week before IOP measurements. Baseline IOP measurements with Tonolab Tonometer (Tiolat Inc) were done in conscious rats (Pease, M. E., et al J. Glaucoma, 15:512-519, 2006) before intravitreal injection of test compounds. Then the rats were anesthetized with isoflurane inhalation and a drop of 0.5% tetracaine was topically applied on the eyes. Pupils were dilated with 1% topical cyclopentolate hydrochloride and 2.5% phenylephrine HCl to see the needle to aim the intravitreal injection of test compounds. […] For example, to compare to fluocinolone acetonide at both 25 and 50 μg/eye, compound (1) was dosed at 42.4 and 84.7 μg/eye, respectively. The des-nitro analog of compound (1) was dosed at 39.1 μg/eye (equivalent for 25 μg FC). Control animals received vehicle.
Five measurements were averaged for each time point. IOP measurements were taken at one and two weeks after intravitreal injection of test compounds.

Compound: CC1(C)O[C@@H]2C[C@H]3[C@@H]4C[C@H](F)C5=CC(=O)C=C[C@]5(C)[C@@]4(F)[C@@H](O)C[C@]3(C)[C@]2(C(=O)CO)O1 [FC, Fluocinolone acetonide]
- EC50 (concentration producing 50% of the maximum relaxation) [1]: no effect
- inhibition of VEGF-induced leakage [2]: 86.1%
- Resistence Index (ophthalmic artery; After 2 weeks (before drug instillation, T2)): 0.45 ± 0.06
- Resistence Index (ophthalmic artery; After 6 weeks (end of drug treatment), 0.5 mg (equivalent)/eye IVT): 0.60 ± 0.04
- Resistence Index (ophthalmic artery; Basal): 0.45 ± 0.06
- TNFα content in aqueous humor (TNFα): 20.76 ± 1.74 pg/mL
- VEGF content in aqueous humor (VEGF): 114.58 ± 5.61 pg/mL
- IL6 content in aqueous humor (IL-6): 16.82 ± 0.98 pg/mL
- ET-1 induced morphological changes of retinal tissue (retinal tissue): not effective
- Photopic erg cone (amplitude) [3]: 136.34 ± 11.98 μV
- IOP ([4]; ET-1, 0.5 mg (equivalent)/eye IVT given at T2): 13.00 ± 2.83 mmHG
- IOP ([4]; I week, 0.5 mg (equivalent)/eye IVT, ET-1 ischemia): 15.50 ± 0.71 mmHG
- IOP ([4]; II week, 0.5 mg (equivalent)/eye IVT, ET-1 ischemia): 19.00 ± 0.00 mmHG
- IOP ([4]; III week, 0.5 mg (equivalent)/eye IVT, ET-1 ischemia): 19.00 ± 1.41 mmHG
- IOP ([4]; IV week, 0.5 mg (equivalent)/eye IVT, ET-1 ischemia): 20.80 ± 0.71 mmHG
- IOP ([4]; V week, 0.5 mg (equivalent)/eye IVT, ET-1 ischemia): 22.20 ± 0.00 mmHG
- IOP ([4]; VI week, 0.5 mg (equivalent)/eye IVT, ET-1 ischemia): 21.10 ± 0.00 mmHG
- IOP ([4]; basal, 0.5 mg (equivalent)/eye IVT given at T2): 13.50 ± 0.17 mmHG
- IOP compared to compound (1) at 42.4 μg/eye (FIG. 4) (Brown Norway rats; 25 μg/eye intravitreal): increase in IOP
- IOP increase (Brown Norway rats; 25 μg/eye intravitreal): 4 mm Hg
- IOP increase (Brown Norway rats; 50 μg/eye intravitreal): 3 mm Hg
- IOP increase after two weeks (Brown Norway rats; 25 and 50 μg/eye intravitreal, two weeks after injection): maintained

Reference: patent publication US9012435B2, “Glucocorticoids attached to nitrate esters via an aromatic linker in position 21 and their use in ophthalmology” (Nicox S.A., priority 2008, dated 2015)
